Here are results for seven molecules from US11530244B2, “Cyclic polypeptides for PCSK9 inhibition” (priority 2018, dated 2022).

The target in experiment [1] is T1, PCSK9 (Homo sapiens (Human), UniProt Q8NBP7). Nature of the experiment: PCSK9 Alexa FRET Standard assay (displacement of AlexaFluor647 tagged cyclic peptide Reagent A). The settings on record: PCSK9 Alexa FRET Standard assay, 0.5 nM PCSK9, 20 nM AF cyclic peptide Reagent A; read-out: IC50. The class given is binding. The method, boiled down:
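TR-FRET displacement: 0.5 nM biotinylated PCSK9 with 1.25 nM Strep-Eu and 20 nM AlexaFluor-tagged cyclic peptide (final) in 50 mM HEPES pH 7.4, 0.15 M NaCl, 5 mM CaCl2, 0.01% BSA, 0.01% P20, ≥2 h at room temperature. IC50 from sigmoidal fit, converted to Ki via peptide KD; falling Eu counts flagged false positives.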

In experiment [2] the target is T1, PCSK9. In words: PCSK9 Alexa FRET Plus assay (displacement of AlexaFluor647 tagged cyclic peptide Reagent B). The settings on record: Alexa FRET Plus, 0.5 nM PCSK9, 960 nM AF cyclic peptide Reagent B; read-out: IC50. The class given is binding. As for the experimental part: A solution containing 1 nM biotinylated PCSK9+2.5 nM Lance Streptavidin Europium (Strep-Eu) was made in 50 mM HEPES pH 7.4, 0.15 M NaCl, 5 mM CaCl2), 0.01% BSA, and 0.01% Surfactant P20. A separate solution containing 1920 nM of the AlexaFluor tagged cyclic peptide was made in the same buffer system. An Echo was used to transfer 0.075 ul of compound plus 0.675 ul of DMSO to each well of an assay plate followed by the addition of 15 ul of PCSK9+Stept-Eu and 15 ul of AF peptide. The final assay volume was 30.750 ul containing 0.5 nM PCSK9, 1.25 nM Strep-Eu, and 960 nM AF cyclic peptide. The reaction was incubated at room temperature for at least two hours prior to fluorescence measurements using an Envision Multilabel Reader. IC50 values were determined by fitting data to a sigmoidal dose-response curve using nonlinear regression. Ki was then calculated from the IC50 and the KD of AF cyclic peptide. Counts (B-counts) of the europium-labeled PCSK9 were followed to observe if compounds were adversely affecting PCSK9. A fall off of the B-counts likely indicated a false positive of inhibition. Data from this procedure was reported as “P=‘numerical value’ (nanomolar)”

Starred links: 1 amine or outer side, 2 acyl side, 3 side chain; linkers in the order of their positions; H or OH if unused. Positions of bridges follow the written chain, without caps; N, C: chain ends. Non-standard residues stand in square brackets, D forms with d. Residues, ends and D or L forms follow the SMILES beside them. Groups on a side chain read outwards from the residue. *: point of attachment. X29 = O=C([C@H](Cc1ccc(CC=[*:3])cc1)N[*:1])[*:2]; Trp(5-F) = N[C@@H](Cc1c[nH]c2ccc(F)cc12)C(=O)O; Phe(4-CH2NH2) = NCc1ccc(C[C@H](N)C(=O)O)cc1; Pro(cis-4-F) = O=C(O)[C@@H]1C[C@H](F)CN1; Hag = O=C([C@H](CCC=[*:3])N[*:1])[*:2]; γGlu = O=C(O)[C@H](CCC(=O)[*:2])N[*:1]; mXylylene = c1cc(C[*:1])cc(C[*:2])c1; AEF = NCCOc1ccc(C[C@H](N)C(=O)O)cc1; X48 = CC(N[*:1])c1ncc(C(=O)[*:2])s1; Palmitoyl = CCCCCCCCCCCCCCCC(=O)*; αMeP = C[C@@]1(C(=O)O)CCCN1; Isobutyryl = CC(C)C(=O)*; AEEA = NCCOCCOCC(=O)O; X37 = O=C(CC1CC1)*; Mpa = O=C(O)CCS

T1 sequence (Q8NBP7 153-692): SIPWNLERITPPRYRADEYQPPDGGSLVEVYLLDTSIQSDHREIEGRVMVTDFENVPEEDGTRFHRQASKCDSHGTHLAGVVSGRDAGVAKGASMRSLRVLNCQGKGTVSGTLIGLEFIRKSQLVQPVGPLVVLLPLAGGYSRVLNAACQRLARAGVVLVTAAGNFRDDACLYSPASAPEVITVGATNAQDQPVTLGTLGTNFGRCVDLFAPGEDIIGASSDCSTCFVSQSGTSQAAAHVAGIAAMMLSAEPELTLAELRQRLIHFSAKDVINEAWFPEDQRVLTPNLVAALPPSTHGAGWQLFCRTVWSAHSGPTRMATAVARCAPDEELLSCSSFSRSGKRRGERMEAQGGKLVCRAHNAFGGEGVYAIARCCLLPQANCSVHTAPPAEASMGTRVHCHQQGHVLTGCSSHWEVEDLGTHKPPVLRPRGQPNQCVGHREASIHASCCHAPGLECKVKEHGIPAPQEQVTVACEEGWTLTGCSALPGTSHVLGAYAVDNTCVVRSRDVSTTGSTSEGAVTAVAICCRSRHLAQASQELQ

Broadly, the IC50 is the concentration that gives 50% inhibition. On to `COc1ccc(C[C@@H]2NC(=O)[C@H]([C@@H](C)O)NC(=O)[C@@H]3C[C@H](F)CN3C(=O)[C@H](Cc3c[nH]c4ccc(F)cc34)NC(=O)[C@H](Cc3c[nH]c4ccc(F)cc34)NC(=O)[C@@H](C)NC(=O)[C@H](CCCCN)NC(=O)[C@@H](NC(=O)CC3CC3)CC(=O)NCCOc3ccc(cc3)C[C@@H](C(N)=O)NC(=O)[C@]3(C)CCCN3C2=O)cc1` [Compound 108] (X37-DK[dA][Trp(5-F)][Trp(5-F)][Pro(cis-4-F)]TY(Me)[αMeP][AEF]-NH2; lactam 1-10), for which the values for the half-inhibitory concentration (IC50) at PCSK9 [1] and at PCSK9 [2] were 0.11 to 100 nM and 500 to 5000 nM, respectively.
The like results for `COc1ccc(C[C@@H]2NC(=O)[C@H]([C@@H](C)O)NC(=O)[C@@H]3C[C@H](F)CN3C(=O)[C@H](Cc3c[nH]c4ccc(F)cc34)NC(=O)[C@H](Cc3c[nH]c4ccc(F)cc34)NC(=O)[C@@H](C)NC(=O)[C@H](CCCCN)NC(=O)[C@@H](NC(C)=O)CC/C=C/Cc3ccc(cc3)C[C@@H](C(N)=O)NC(=O)[C@]3(C)CCCN3C2=O)cc1` [Compound 138] (Ac-[Hag]K[dA][Trp(5-F)][Trp(5-F)][Pro(cis-4-F)]TY(Me)[αMeP][X29]-NH2; staple (E) 1-10) were, in that order, 100 to 1000 nM and 500 to 5000 nM.
On the same counts, the results for `CC(=O)N[C@@H]1CCCC/C=C\CO[C@H]2C[C@@H](C(N)=O)N(C2)C(=O)[C@H](Cc2ccc(O)cc2)NC(=O)[C@H](Cc2cnc[nH]2)NC(=O)[C@H](CC(=O)O)NC(=O)[C@H](Cc2c[nH]c3ccc(F)cc23)NC(=O)[C@H](Cc2c[nH]c3ccc(F)cc23)NC(=O)CNC1=O` [Compound 422] are 0.11 to 100 nM and 100 to 500 nM.
As for `CCCCCCCCCCCCCCCC(=O)N[C@@H](CCC(=O)NCCOCCOCC(=O)NCCOCCOCC(=O)NCc1ccc(C[C@@H]2NC(=O)[C@@H](C)NC(=O)[C@H](CCCCN)NC(=O)CCSCc3cccc(c3)CSC[C@@H](C(N)=O)NC(=O)[C@]3(C)CCCN3C(=O)[C@H](Cc3ccc(O)cc3)NC(=O)[C@H](Cc3cnc[nH]3)NC(=O)[C@H](CC(=O)O)NC(=O)[C@H](Cc3c[nH]c4ccc(F)cc34)NC2=O)cc1)C(=O)O` [Compound 453] ([Mpa]K[dA][Phe(4-CH2NH2)]([AEEA-AEEA-γGlu-Palmitoyl])[Trp(5-F)]DHY[αMeP]C-NH2; linker 1-10 via mXylylene), the IC50 on PCSK9 [1] lay within 0.11 to 100 nM; on PCSK9 [2], 0.1 to 100 nM.
With `CCCCCCCCCCCCCCCC(=O)N[C@@H](CCC(=O)NCCOCCOCC(=O)NCCOCCOCC(=O)NCCCC[C@H](NC(C)=O)C(=O)NCCOCCOCC(=O)N[C@@H]1CSCc2cccc(c2)CSC[C@@H](C(N)=O)NC(=O)[C@]2(C)CCCN2C(=O)[C@H](Cc2ccc(O)cc2)NC(=O)[C@H]([C@@H](C)O)NC(=O)N2C[C@@H](F)C[C@H]2C(=O)[C@H](Cc2c[nH]c3ccc(F)cc23)NC(=O)[C@H](Cc2c[nH]c3ccc(F)cc23)NC(=O)[C@@H](C)NC(=O)[C@H](C)NC1=O)C(=O)O` [Compound 135], the values for the IC50 on PCSK9 [1] and on PCSK9 [2] were 0.11 to 100 nM and 0.1 to 100 nM, respectively.
On the same counts, the results for `CC1NC(=O)[C@H](Cc2c[nH]c3ccc(F)cc23)NC(=O)[C@H](Cc2c[nH]c3ccc(F)cc23)NC(=O)[C@@H](C)NC(=O)[C@H](CCCCN)NC(=O)CCSCc2cccc(c2)CSC[C@@H](C(N)=O)NC(=O)[C@]2(C)CCCN2C(=O)[C@H](Cc2ccc(O)cc2)NC(=O)C2=CN=C1S2` (some centres unmarked) [Compound 480] ([Mpa]K[dA][Trp(5-F)][Trp(5-F)][X48]Y[αMeP]C-NH2; linker 1-9 via mXylylene) are 100 to 1000 nM and 500 to 5000 nM.
Regarding `COc1ccc(C[C@@H]2NC(=O)[C@H]([C@@H](C)O)NC(=O)[C@@H]3C[C@H](F)CN3C(=O)[C@H](Cc3c[nH]c4ccc(F)cc34)NC(=O)[C@H](Cc3c[nH]c4ccc(F)cc34)NC(=O)[C@@H](C)NC(=O)[C@H](CCCCN)NC(=O)[C@@H](NC(=O)C(C)C)CC(=O)NCCOc3ccc(cc3)C[C@@H](C(N)=O)NC(=O)[C@]3(C)CCCN3C2=O)cc1` [Compound 123] (Isobutyryl-DK[dA][Trp(5-F)][Trp(5-F)][Pro(cis-4-F)]TY(Me)[αMeP][AEF]-NH2; lactam 1-10), the IC50 is 0.11 to 100 nM at PCSK9 [1] and 0.1 to 100 nM on PCSK9 [2].
